Measured values published in PubChem BioAssay AID1963441 (Molecular Pharmacology Branch, DTP, NCI, 2024).
Each block holds one compound with its values, some of them ahead of it.

Test system: NCI-H1876 complex spheroid growth, % test/control
Test: Anticancer human tumor NCI-H1876 cell line growth inhibition [Asc];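 also: compound exposure lasted 7 days starting three days after seeding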;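 as to viability, T/C: 100% = DMSO vehicle control wells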
Details: for IC50: curve of first compound; for viability, T/C: stronger effect = lower value
Protocol: Multicellular complex tumor spheroid response to apoptosis pathway targeting inhibitors Alrizomadlin, Pelcitoclax, and Dasminapant in combination with a variety of drugs and investigational agents in selected tumor cell lines
The MDM2 inhibitor alrizomadlin, the Bcl-2/Bcl-xL inhibitor pelcitoclax, and the IAPs inhibitor dasminapant were evaluated both individually and in combination with standard of care and investigational anticancer small molecules within a complex spheroid model of solid tumors. . Complex spheroids include a stromal component modeled by human endothelial cells (HUVEC) and fibroblasts modeled by human mesenchymal stem cells (MSCs). The concentration ranges selected for each drug and investigational agent were based upon clinically achievable concentrations if the clinical Cmax of the agent was known.
Compounds. The drugs and investigational agents: alrizomadlin (APG-115; NSC831270), pelcitoclax (APG-1252; NSC835773), dasminapant (APG-1387;NSC834197), TAK-243 (NSC785004), copanlisib (NSC809693), olaparib (NSC753686), talazoparib (NSC767125), cobimetinib (NSC 768068), eltanexor (KPT-8602, NSC 794443), abemaciclib (NSC 768073), sotorasib (NSC818433), adagrasib (NSC 831453), MRTX-1133 (NSC 836407), Iadademestat (ORY1001, NSC 806812), and RMC-4630 (NSC839698), were obtained from the NCI Developmental Therapeutics Program Chemical Repository. The FDA-approved anticancer drug set is available from the Developmental Therapeutics Program at https://dtp.cancer.gov/organization/dscb/obtaining/available plates.htm. […] The stock solutions were prepared in dimethyl sulfoxide (DMSO, Sigma-Aldrich, St. Louis, MO, cat. D2650) at 800-fold the tested concentration and stored at -70 degrees C prior to their use. All drugs and investigational agents were tested over a range starting from a high concentration at or near the clinical Cmax and decreasing in half-log increments. If the clinical Cmax for an agent had not been determined, the highest concentration tested was 10 microM.
The patient-derived cancer (PDC) cell lines include five colon adenocarcinomas: 186277-243-T-J2-PDC, 616215-338-R-J1-PDC, 439559-082-T-J2-PDC, 463943-066-T-J2-PDC, and 519858-162-T-J1-PDC; three pancreatic carcinomas: 323965-272-R-J2-PDC, 521955-158-R6-J3-PDC, and 521955-158-R2-J5-PDC; two uterine sarcomas: 327498-152-R-J2-PDC and 993429-296-R-J1-PDC; two rhabdomyosarcomas: 755483-174-R-J1-PDC and 772245-204-R-J1-PDC; two soft tissue sarcomas: 126254-015-R-J1-PDC and 494315-158-R-J1-PDC; two malignant fibrous histiocytomas: 317291-083-R-J1-PDC and 596521-263-R-J1-PDC; two breast carcinomas: 171881-019-R-J1-PDC and 885512-296-R-J2-PDC; and one ovarian carcinoma: 6556581-035-R-J-PDC were obtained from the NCI PDMR, (https://pdmr.cancer.gov). The established cell lines HSSY-2 synovial sarcoma (RRID:CVCL 8719), SYO-1 synovial sarcoma (RRID:CVCL_7146), MPNST malignant peripheral neural sheath tumor were obtained from the Sloan Kettering Institute. The following established cell lines were purchased from the American Type Culture Collection (ATCC, Manassas, VA), Sor the received from the NCI repository:, PANC-1 pancreatic carcinoma (CRL-1469, RRID:CVCL_0480), OVCAR-5 ovarian carcinoma (RRID:CVCL_1628), OVCAR-8 ovarian carcinoma (RRID:CVCL_1629), , MCF-7 breast carcinoma (CRL-12584, RRID:CVCL_0031), MDA-MB-231 breast carcinoma (CRL-12532, RRID:CVCL_0062), NCI-H1876 small cell lung carcinoma (CRL-5902, RRID:CVCL_1503), NCI-H510A small cell lung carcinoma (HTB-184, RRID:CVCL_1565), NCI-H1417 (CRL-5869, RRID:CVCL_1469), and NCI-H196 small cell lung carcinoma (CRL-5823, RRID:CVCL_1509). Dr. Peter Houghton (Greehey Children's Cancer Research Institute, University of Texas Health Science Center, San Antonio, TX) provided Rh-18 rhabdomyosarcoma (RRID:CVCL_1659). Pooled donor human umbilical vein endothelial cells (HUVEC, Lonza, cat. CC-2519) and human mesenchymal stem cells (hMSC, Lonza, cat. PT-2501) were purchased from Lonza (Walkersville, MD).
Cell Culture. […]

IC50 (second compound 0.00949 µM): > 1000 nM | IC50 (second compound 0.03 µM): > 1000 nM | IC50 (second compound 0.0949 µM): > 1000 nM | IC50 (second compound 0.3 µM): > 1000 nM | IC50 (second compound 0.949 µM): > 1000 nM | IC50 (second compound 3 µM): > 1000 nM
SMILES: O=C(c1ccc(F)c(F)c1Nc1ccc(I)cc1F)N1CC(O)([C@@H]2CCCCN2)C1 + CCN1C(C(=O)NC23CCC(C(=O)O)(CC2)CC3)C(c2cccc(Cl)c2F)C2(C(=O)Nc3cc(Cl)ccc32)C12CCCCC2
viability, T/C (second compound 0.00949 µM, first compound 0.00316 µM): 102% | viability, T/C (second compound 0.00949 µM, first compound 0.01 µM): 90.7% | viability, T/C (second compound 0.00949 µM, first compound 0.0316 µM): 104% | viability, T/C (second compound 0.00949 µM, first compound 0.1 µM): 95.7% | viability, T/C (second compound 0.00949 µM, first compound 0.316 µM): 93.4% | viability, T/C (second compound 0.00949 µM, first compound 1 µM): 87.7% | viability, T/C (second compound 0.03 µM, first compound 0.00316 µM): 100% | viability, T/C (second compound 0.03 µM, first compound 0.01 µM): 98.5% | viability, T/C (second compound 0.03 µM, first compound 0.0316 µM): 95.5% | viability, T/C (second compound 0.03 µM, first compound 0.1 µM): 95.1% | viability, T/C (second compound 0.03 µM, first compound 0.316 µM): 89.5% | viability, T/C (second compound 0.03 µM, first compound 1 µM): 82.3% | viability, T/C (second compound 0.0949 µM, first compound 0.00316 µM): 104% | viability, T/C (second compound 0.0949 µM, first compound 0.01 µM): 97.5% | viability, T/C (second compound 0.0949 µM, first compound 0.0316 µM): 88% | viability, T/C (second compound 0.0949 µM, first compound 0.1 µM): 102% | viability, T/C (second compound 0.0949 µM, first compound 0.316 µM): 85.8% | viability, T/C (second compound 0.0949 µM, first compound 1 µM): 79.2% | viability, T/C (second compound 0.3 µM, first compound 0.00316 µM): 99.9% | viability, T/C (second compound 0.3 µM, first compound 0.01 µM): 110% | viability, T/C (second compound 0.3 µM, first compound 0.0316 µM): 109% | viability, T/C (second compound 0.3 µM, first compound 0.1 µM): 101% | viability, T/C (second compound 0.3 µM, first compound 0.316 µM): 103% | viability, T/C (second compound 0.3 µM, first compound 1 µM): 83.7% | viability, T/C (second compound 0.949 µM, first compound 0.00316 µM): 110% | viability, T/C (second compound 0.949 µM, first compound 0.01 µM): 114% | viability, T/C (second compound 0.949 µM, first compound 0.0316 µM): 112% | viability, T/C (second compound 0.949 µM, first compound 0.1 µM): 109% | viability, T/C (second compound 0.949 µM, first compound 0.316 µM): 108% | viability, T/C (second compound 0.949 µM, first compound 1 µM): 77.4% | viability, T/C (second compound 3 µM, first compound 0.00316 µM): 103% | viability, T/C (second compound 3 µM, first compound 0.01 µM): 98.3% | viability, T/C (second compound 3 µM, first compound 0.0316 µM): 101% | viability, T/C (second compound 3 µM, first compound 0.1 µM): 99.1% | viability, T/C (second compound 3 µM, first compound 0.316 µM): 91.3% | viability, T/C (second compound 3 µM, first compound 1 µM): 77.4%

IC50 (second compound 0.00949 µM): > 300 nM | IC50 (second compound 0.03 µM): > 300 nM | IC50 (second compound 0.0949 µM): > 300 nM | IC50 (second compound 0.3 µM): > 300 nM | IC50 (second compound 0.949 µM): > 300 nM | IC50 (second compound 3 µM): > 300 nM
SMILES: NC(=O)C(=Cn1cnc(-c2cc(C(F)(F)F)cc(C(F)(F)F)c2)n1)c1cncnc1 + CCN1C(C(=O)NC23CCC(C(=O)O)(CC2)CC3)C(c2cccc(Cl)c2F)C2(C(=O)Nc3cc(Cl)ccc32)C12CCCCC2
viability, T/C (second compound 0.00949 µM, first compound 0.000949 µM): 104% | viability, T/C (second compound 0.00949 µM, first compound 0.003 µM): 102% | viability, T/C (second compound 0.00949 µM, first compound 0.00949 µM): 115% | viability, T/C (second compound 0.00949 µM, first compound 0.03 µM): 94% | viability, T/C (second compound 0.00949 µM, first compound 0.0949 µM): 100% | viability, T/C (second compound 0.00949 µM, first compound 0.3 µM): 64.8% | viability, T/C (second compound 0.03 µM, first compound 0.000949 µM): 101% | viability, T/C (second compound 0.03 µM, first compound 0.003 µM): 99.3% | viability, T/C (second compound 0.03 µM, first compound 0.00949 µM): 96.6% | viability, T/C (second compound 0.03 µM, first compound 0.03 µM): 101% | viability, T/C (second compound 0.03 µM, first compound 0.0949 µM): 96.2% | viability, T/C (second compound 0.03 µM, first compound 0.3 µM): 63.7% | viability, T/C (second compound 0.0949 µM, first compound 0.000949 µM): 101% | viability, T/C (second compound 0.0949 µM, first compound 0.003 µM): 102% | viability, T/C (second compound 0.0949 µM, first compound 0.00949 µM): 100% | viability, T/C (second compound 0.0949 µM, first compound 0.03 µM): 98.5% | viability, T/C (second compound 0.0949 µM, first compound 0.0949 µM): 102% | viability, T/C (second compound 0.0949 µM, first compound 0.3 µM): 71.2% | viability, T/C (second compound 0.3 µM, first compound 0.000949 µM): 103% | viability, T/C (second compound 0.3 µM, first compound 0.003 µM): 104% | viability, T/C (second compound 0.3 µM, first compound 0.00949 µM): 103% | viability, T/C (second compound 0.3 µM, first compound 0.03 µM): 103% | viability, T/C (second compound 0.3 µM, first compound 0.0949 µM): 105% | viability, T/C (second compound 0.3 µM, first compound 0.3 µM): 69.6% | viability, T/C (second compound 0.949 µM, first compound 0.000949 µM): 124% | viability, T/C (second compound 0.949 µM, first compound 0.003 µM): 104% | viability, T/C (second compound 0.949 µM, first compound 0.00949 µM): 104% | viability, T/C (second compound 0.949 µM, first compound 0.03 µM): 114% | viability, T/C (second compound 0.949 µM, first compound 0.0949 µM): 101% | viability, T/C (second compound 0.949 µM, first compound 0.3 µM): 68.5% | viability, T/C (second compound 3 µM, first compound 0.000949 µM): 109% | viability, T/C (second compound 3 µM, first compound 0.003 µM): 97.4% | viability, T/C (second compound 3 µM, first compound 0.00949 µM): 104% | viability, T/C (second compound 3 µM, first compound 0.03 µM): 94.8% | viability, T/C (second compound 3 µM, first compound 0.0949 µM): 96.1% | viability, T/C (second compound 3 µM, first compound 0.3 µM): 55%
